In article PMC8146980, “An Arrhythmic Mutation E7K Facilitates TRPM4 Channel Activation via Enhanced PIP2 Interaction” (Cells, 2021):

Assays:
TRPM4 (TRPM4b) [1] = target: T1, TRPM4 (TRPM4b) (Homo sapiens, UniProt Q8TD43); experiment: inside-out patch clamp, HEK293, reactivation after desensitization, Hill fit; format: cell-based; conditions: read-out: apparent EC50; Kd (abstract)
T1 construct: full-length human TRPM4b CDS subcloned into pcI-neo, expressed in HEK293 cells (original clone in pcDNA4TO-Flag); homotetramer (known biology)

TRPM4 (TRPM4b) [2] = target: T2, TRPM4 (TRPM4b) (Homo sapiens, UniProt Q8TD43, E7K); experiment: as above; format: cell-based; conditions: read-out: apparent EC50; Kd (abstract)
T2 construct: full-length human TRPM4b CDS subcloned into pcI-neo, expressed in HEK293 cells (original clone in pcDNA4TO-Flag); homotetramer (known biology)
T2 sequence (Q8TD43 whole entry E7K): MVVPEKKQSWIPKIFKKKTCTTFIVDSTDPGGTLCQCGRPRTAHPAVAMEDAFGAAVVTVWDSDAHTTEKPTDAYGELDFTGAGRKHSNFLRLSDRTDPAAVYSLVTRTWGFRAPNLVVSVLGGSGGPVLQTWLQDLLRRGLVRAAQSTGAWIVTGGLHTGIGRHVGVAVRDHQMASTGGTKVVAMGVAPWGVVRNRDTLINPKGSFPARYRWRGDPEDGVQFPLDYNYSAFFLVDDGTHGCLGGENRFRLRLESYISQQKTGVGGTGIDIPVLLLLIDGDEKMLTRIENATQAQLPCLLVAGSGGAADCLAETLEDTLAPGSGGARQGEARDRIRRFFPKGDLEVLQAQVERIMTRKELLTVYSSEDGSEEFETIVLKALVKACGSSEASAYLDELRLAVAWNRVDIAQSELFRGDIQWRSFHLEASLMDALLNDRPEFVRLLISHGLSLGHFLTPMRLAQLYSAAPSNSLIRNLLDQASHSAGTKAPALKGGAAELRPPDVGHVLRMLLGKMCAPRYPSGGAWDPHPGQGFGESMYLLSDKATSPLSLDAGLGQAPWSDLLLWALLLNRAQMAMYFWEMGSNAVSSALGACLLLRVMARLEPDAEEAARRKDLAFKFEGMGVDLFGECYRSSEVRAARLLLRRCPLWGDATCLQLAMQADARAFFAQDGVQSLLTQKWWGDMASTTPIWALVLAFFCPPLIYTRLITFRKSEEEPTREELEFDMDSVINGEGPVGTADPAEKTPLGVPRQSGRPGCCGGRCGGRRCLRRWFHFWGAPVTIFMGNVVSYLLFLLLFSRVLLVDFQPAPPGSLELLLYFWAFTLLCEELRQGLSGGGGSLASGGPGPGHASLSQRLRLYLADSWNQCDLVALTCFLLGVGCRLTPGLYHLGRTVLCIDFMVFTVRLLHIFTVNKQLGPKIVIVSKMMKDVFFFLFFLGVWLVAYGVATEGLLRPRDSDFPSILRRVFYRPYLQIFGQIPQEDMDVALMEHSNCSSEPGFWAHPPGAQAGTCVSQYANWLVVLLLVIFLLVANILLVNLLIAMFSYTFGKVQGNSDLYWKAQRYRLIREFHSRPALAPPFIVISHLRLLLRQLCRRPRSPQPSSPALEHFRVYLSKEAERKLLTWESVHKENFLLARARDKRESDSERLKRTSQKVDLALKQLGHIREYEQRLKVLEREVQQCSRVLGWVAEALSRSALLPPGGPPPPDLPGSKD

T1 sequence (Q8TD43 whole entry): as the sequence (Q8TD43 whole entry E7K) above, with K7E counted along it

CCCCCCCC(=O)OC[C@H](COP(=O)(O)O[C@@H]1[C@H](O)[C@H](O)[C@@H](OP(=O)(O)O)[C@H](OP(=O)(O)O)[C@H]1O)OC(=O)CCCCCCC [diC8-PI(4,5)P2]
EC50 (TRPM4 (TRPM4b) [1]): 2400 ± 230 nM
EC50 (TRPM4 (TRPM4b) [2]): 1440 ± 200 nM
